Assay results reported in US12600716B2 (Gannex Pharma Co., Ltd., priority 2020, dated 2026).
Where two headings read alike, the source gives them in different places.

How the values were obtained:
[1] = test system: DEN+HFD+CHOL induced NASH model; test: DEN+HFD+CHOL induced NASH model in rats; format: in vivo, male SD rats
Procedure: Therapeutic efficacy of FXR compounds was evaluated in DEN+HFD+CHOL induced NASH model in male SD rats. Newborn male rats received DEN injection at Week 2 after birth to generate NASH model. Negative control animals (Group 1, n=10) received no DEN injection. At Week 4, 50 rats that received DEN injections started HFD+CHOL diet (60 kcal % Fat+1.25% Cholesterol+0.5% cholate) for 8 weeks, while negative control animals were still on normal diet. At Week 5, DEN treated rats were randomly assigned into 5 groups (Group 2-6) based on body weight. Disease Group (Group 2, n=10), received no treatment; OCA group (Group 3, n=10) received OCA at 30 mg/kg. Group 4-6 (n=10 each) received Compound 1 at low (3 mg/kg), […], and […]. OCA and Compound 1 were given PO QD, for 7 weeks. On the day after last dose, all animals were euthanized and liver tissues were fixed with formalin for pathological evaluation.

[2] = Mouse pharmacokinetic studies (IV and PO); format: in vivo, Male CD-1 mice
Procedure: Mouse Pharmacokinetic Studies
Typical PK study procedure. For i.v. PK studies, a group of three fasted Male CD-1 mice were dosed with the compound (2.0 mg/kg, 0.50 mg/mL in 5% solutol in saline, clear solution), and 0.02 mL blood was collected at 0.0830, 0.250, 0.500, 1.00, 2.00, 4.00, 8.00, 24.0 h. For PO PK studies, a group of three fasted Male CD-1 mice were dosed with the compound (10 mg/kg, 1 mg/mL in 5% solutol in saline, clear solution), and 0.02 mL blood was collected at 0.250, 0.500, 1.00, 2.00, 4.00, 6.00, 8.00, 24.0 h. The blood was collected into EP tubes (containing EDTA K20.85-1.15 mg) and centrifuged at 3,000 g or 3,200 g at 4° C. for 10 min) and plasma was isolated and divided into two vials. One was used for bioanalysis and one was kept as backup. The samples were kept at −60° C. or below, until being analyzed by LC MS/MS. The samples were analyzed with AB SCIEX INSTRUMENTS LC-MS/MS AU-Triple Quad 6500 Plus and data were processed with Phoenix WinNonlin 6.3 (IV-noncompartmental model and PO-noncompartmental model).

[3] = test system: STZ+DEN+HFD induced NASH model; test: STZ+DEN+HFD induced NASH model in mice; format: in vivo, male C57BL/6 mice
Procedure: Therapeutic efficacy of FXR compounds was evaluated in STZ+DEN+HFD induced NASH model in male C57BL/6 mice. Briefly, newborn male C57BL/6 mice were injected with streptozocin (STZ) at Week 2 to introduce diabetes and diethylnitrosamine (DEN) at Week 4 to promote liver fibrosis. Mice receiving neither STZ nor DEN were used as negative control (Group 1, n=12) and were fed with normal diet. At Week 6, 60 diabetic mice were selected (blood glucose>12 mmol/L after 6 h of fasting) and were fed with high fat diet (HFD, diet that contains 60 kcal % fat). After one week on HFD, animals were randomly assigned into 5 groups based on body weight: Group 2 (n=12), disease model group, no compound treatment; Group 3 (n=10), positive control group, treated with OCA (30 mg/kg); Group 4 (n=12), treated with Compound 1 (3 mg/kg); Group 5 (n=12), treated with Compound 1 (10 mg/kg); Group 6 (n=12), treated with Compound 1 (30 mg/kg). OCA and Compounds 1 were PO QD, for 7 weeks. On the day after last dose, all animals were euthanized and liver tissues were fixed with formalin for pathological evaluation.

[4] = male, CD-1, plasma, PO 10 mg/kg

PO F ([2]; PO 10 mg/kg vs IV 2.0 mg/kg): 33% | Vd ([2]; male, CD-1, plasma, IV 2.0 mg/kg): 1.75 L/kg | AUC(0-t) ([2]; male, CD-1, plasma, IV 2.0 mg/kg, read-out: IV AUC 0-t): 705 ng·h/mL | clearance ([2]; male, CD-1, plasma, IV 2.0 mg/kg, read-out: IV Cl): 47.4 mL/min/kg | half-life ([2]; male, CD-1, plasma, IV 2.0 mg/kg, read-out: IV T½ (converted)): 51 min | Cmax [2, 4]: 641 ng/mL | Tmax [2, 4]: 49.8 min | AUC(0-t) ([2]; male, CD-1, plasma, PO 10 mg/kg, read-out: PO AUC 0-t): 1160 ng·h/mL
SMILES: O=C(O)c1ccc(Oc2ccc3cc(OCc4c(-c5c(Cl)cccc5Cl)noc4C4CC4)ccc3c2)nc1 [Compound 1, 6-((6-((5-cyclopropyl-3-(2,6-dichlorophenyl)isoxazol-4-yl)methoxy)naphthalen-2-yl)oxy)nicotinic acid]
NAS score lowered as compared to the model group ([1]; 30 mg/kg PO QD 7 weeks): 42.9% | lowered cirrhosis percentage ([1]; 30 mg/kg PO QD 7 weeks): 28.0% | NAS score (FIG. 3) ([1]; 3, 10 and 30 mg/kg PO QD 7 weeks, all p<0.001): dose dependent decrease | progress of liver fibrosis (FIG. 4) ([1]; 3, 10 and 30 mg/kg PO QD 7 weeks, p<0.01): significantly inhibited | NAS score ([3]; 30 mg/kg PO QD 7 weeks): significantly decreases | decreased NAS score as compared with the model group ([3]; 30 mg/kg PO QD 7 weeks): 46.2% | lowered cirrhosis percentage ([3]; 30 mg/kg PO QD 7 weeks): 15.2% | hepatocyte steatosis (FIG. 1) ([3]; 3, 10 and 30 mg/kg PO QD 7 weeks, p<0.001): dose dependent decrease | progress of liver fibrosis (FIG. 2) ([3]; low (3 mg/kg) and high doses (30 mg/kg) PO QD 7 weeks): significantly inhibited
